Measured values taken from ChEMBL document CHEMBL1201862, “PubChem BioAssay data set” (2004).
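Protocol summary: plate cells (96-well), add compound at 5 concentrations, incubate 48 h, interpolate endpoints linearly. GI50 = concentration required for 50% inhibition of growth.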 Active and inactive are the calls of the source. Cut-off read from the data, not from the text of the source: active = GI50 up to about 1.1 µM and inactive = higher.

Key:
Experiment in all cases: inhibition of tumour cell growth, NCI panel, 48 h
T47D = system: T47D
786-0 = system: 786-0
NCI-H23 = system: NCI-H23
ACHN = system: ACHN
NCI-H522 = system: NCI-H522
LOX IMVI = system: LOX IMVI
SK-MEL-5 = system: SK-MEL-5
RXF 393 = system: RXF 393
SN12C = system: SN12C
OVCAR-5 = system: OVCAR-5
Hs-578T = system: Hs-578T
A549 = system: A549
RPMI-8226 = system: RPMI-8226
CCRF-CEM = system: CCRF-CEM
DU-145 = system: DU-145
HOP-92 = system: HOP-92
HCT-15 = system: HCT-15
UACC-257 = system: UACC-257
HOP-62 = system: HOP-62
U-251 = system: U-251
Malme-3M = system: Malme-3M
SK-OV-3 = system: SK-OV-3
MDA-MB-435 = system: MDA-MB-435
MDA-N = system: MDA-N
M14 = system: M14
OVCAR-3 = system: OVCAR-3
HT-29 = system: HT-29
SW-620 = system: SW-620
BT-549 = system: BT-549
HL-60 = system: HL-60
OVCAR-8 = system: OVCAR-8
HCC 2998 = system: HCC 2998
SK-MEL-28 = system: SK-MEL-28
IGROV-1 = system: IGROV-1
KM12 = system: KM12
SF-295 = system: SF-295
MDA-MB-231 = system: MDA-MB-231
A498 = system: A498
K562 = system: K562
SF-268 = system: SF-268
UACC-62 = system: UACC-62
SK-MEL-2 = system: SK-MEL-2
HCT-116 = system: HCT-116
COLO 205 = system: COLO 205
EKVX = system: EKVX
OVCAR-4 = system: OVCAR-4
MOLT-4 = system: MOLT-4
NCI-H460 = system: NCI-H460
MCF7 = system: MCF7
SR = system: SR
CAKI-1 = system: CAKI-1
UO-31 = system: UO-31
SF-539 = system: SF-539
PC-3 = system: PC-3
TK-10 = system: TK-10
SNB-75 = system: SNB-75
SNB-19 = system: SNB-19

## CC[C@@H](O)C[C@H]1CCC[C@@]2(C[C@@H]3OC(=O)/C=C/[C@@](C)(O)[C@@H](O)[C@H](C)[C@@H](O)[C@H](OC4CCC(N(C)C)C(C)O4)[C@@H](O)[C@](C)(O)CCCCC/C=C/[C@@H]4CC(C)(C)O[C@@]4(O)C[C@H](O2)[C@H]3C)O1 (some centres undefined)
T47D
  GI50: < 0.01 µM (active)
786-0
  GI50: 11.3 µM (inactive)
NCI-H23
  GI50: < 0.01 µM (active)
ACHN
  GI50: < 0.01 µM (active)
NCI-H522
  GI50: < 0.01 µM (active)
LOX IMVI
  GI50: 1.82 µM (inactive)
SK-MEL-5
  GI50: < 0.01 µM (active)
RXF 393
  GI50: 14.7 µM (inactive)
SN12C
  GI50: 16.4 µM (inactive)
OVCAR-5
  GI50: 14.8 µM (inactive)
Hs-578T
  GI50: 12.8 µM (inactive)
A549
  GI50: < 0.01 µM (active)
RPMI-8226
  GI50: < 0.01 µM (active)
CCRF-CEM
  GI50: 15.9 µM (inactive)
DU-145
  GI50: 11.3 µM (inactive)
HOP-92
  GI50: 13.7 µM (inactive)
HCT-15
  GI50: 11.5 µM
UACC-257
  GI50: < 0.01 µM (active)
HOP-62
  GI50: 13.4 µM (inactive)
U-251
  GI50: < 0.01 µM (active)
Malme-3M
  GI50: 1.56 µM (inactive)
SK-OV-3
  GI50: 14.6 µM (inactive)
MDA-MB-435
  GI50: 0.927 µM (active)
MDA-N
  GI50: 2.96 µM (inactive)
M14
  GI50: 1.85 µM (inactive)
OVCAR-3
  GI50: 12.9 µM (inactive)
HT-29
  GI50: 3.49 µM (inactive)
SW-620
  GI50: 16.6 µM (inactive)
BT-549
  GI50: 12.6 µM (inactive)
HL-60
  GI50: 3.75 µM (inactive)
OVCAR-8
  GI50: < 0.01 µM (active)
HCC 2998
  GI50: 2.4 µM (inactive)
SK-MEL-28
  GI50: 15.8 µM (inactive)
IGROV-1
  GI50: 6.44 µM (inactive)
KM12
  GI50: 340 nM (active)
SF-295
  GI50: < 0.01 µM (active)
MDA-MB-231
  GI50: 17.5 µM (inactive)
A498
  GI50: 19.9 µM (inactive)
K562
  GI50: < 0.01 µM (active)
SF-268
  GI50: 15.7 µM (inactive)
UACC-62
  GI50: 6.37 µM (inactive)
SK-MEL-2
  GI50: 10.5 µM (inactive)
HCT-116
  GI50: 1.54 µM (inactive)
COLO 205
  GI50: < 0.01 µM (active)
EKVX
  GI50: < 0.01 µM (active)
OVCAR-4
  GI50: 5.2 µM (inactive)
MOLT-4
  GI50: 1.91 µM (inactive)
NCI-H460
  GI50: 4.23 µM (inactive)
MCF7
  GI50: < 0.01 µM (active)
SR
  GI50: 1.06 µM (active)
CAKI-1
  GI50: 3.61 µM (inactive)
UO-31
  GI50: < 0.0388 µM (active)
SF-539
  GI50: 10.9 µM (inactive)

## C=CCCCC1(C)CCNC1=S (centres undefined)
T47D
  GI50: > 100 µM (inactive)
PC-3
  GI50: > 100 µM (inactive)
786-0
  GI50: > 100 µM (inactive)
NCI-H23
  GI50: > 100 µM (inactive)
ACHN
  GI50: > 100 µM (inactive)
NCI-H522
  GI50: > 100 µM (inactive)
TK-10
  GI50: > 100 µM (inactive)
SK-MEL-5
  GI50: > 100 µM (inactive)
RXF 393
  GI50: > 100 µM (inactive)
SN12C
  GI50: > 100 µM (inactive)
OVCAR-5
  GI50: > 100 µM (inactive)
Hs-578T
  GI50: > 100 µM (inactive)
A549
  GI50: > 100 µM (inactive)
RPMI-8226
  GI50: > 100 µM (inactive)
DU-145
  GI50: > 100 µM (inactive)
HOP-92
  GI50: > 100 µM (inactive)
HCT-15
  GI50: > 100 µM
UACC-257
  GI50: > 100 µM (inactive)
HOP-62
  GI50: > 100 µM (inactive)
U-251
  GI50: > 100 µM (inactive)
SK-OV-3
  GI50: > 100 µM (inactive)
MDA-MB-435
  GI50: > 100 µM (inactive)
MDA-N
  GI50: > 100 µM (inactive)
M14
  GI50: > 100 µM (inactive)
SNB-75
  GI50: > 100 µM (inactive)
OVCAR-3
  GI50: > 100 µM (inactive)
HT-29
  GI50: > 100 µM (inactive)
SW-620
  GI50: > 100 µM (inactive)
BT-549
  GI50: > 100 µM (inactive)
OVCAR-8
  GI50: > 100 µM (inactive)
HCC 2998
  GI50: > 100 µM (inactive)
SK-MEL-28
  GI50: > 100 µM (inactive)
IGROV-1
  GI50: > 100 µM (inactive)
SF-295
  GI50: > 100 µM (inactive)
MDA-MB-231
  GI50: > 100 µM (inactive)
A498
  GI50: > 100 µM (inactive)
K562
  GI50: > 100 µM (inactive)
SF-268
  GI50: > 100 µM (inactive)
UACC-62
  GI50: > 100 µM (inactive)
SK-MEL-2
  GI50: > 100 µM (inactive)
HCT-116
  GI50: > 100 µM (inactive)
COLO 205
  GI50: > 100 µM (inactive)
EKVX
  GI50: > 100 µM (inactive)
OVCAR-4
  GI50: > 100 µM (inactive)
MOLT-4
  GI50: 66.5 µM (inactive)
NCI-H460
  GI50: > 100 µM (inactive)
MCF7
  GI50: > 100 µM (inactive)
SNB-19
  GI50: > 100 µM (inactive)
CAKI-1
  GI50: > 100 µM (inactive)
UO-31
  GI50: > 100 µM (inactive)
SF-539
  GI50: > 100 µM (inactive)
